Test results reported in patent US9622977B2, “Sustained release drug delivery system” (BIOPLUS LIFE SCIENCES PVT, LTD., priority 2008, dated 2017).
Read-outs that look alike come from different tables or passages of the source.

Legend:
[1] = oral; cited from earlier work
in vivo = conditions: Sprague-Dawley, rat, po
Description: Rats were kept on fasting 12 hours before drug administration and until 24 hours post dosing. Water ad libitum was given throughout the study. […] Second, third, fourth, fifth and sixth group received oral administration of chitosan, thiolated chitosan, trimethyl chitosan, CARBOPOL® or METHOCEL® microspheres, respectively. […] Supernatant was collected and acetonitrile was added to precipitate the proteins. The precipitated proteins were settled by centrifugation at 2000 rpm for 15 min. The supernatant was collected and filtered through a 0.45 μm filter into volumetric flask and drug concentration was determined by spectrofluorometric assay.

[2] = Acyclovir IR 400 mg single dose; From Ref. 35; cited from earlier work
Erythrocytes = assay: Hemolytic toxicity assay; format: cell-based; conditions: 1 hr of incubation at 37°C, water = 100%
Description: The procedure from literature was followed to perform the hemolytic toxicity studies.^19 Blood from healthy donors was collected and anticogulated with 3% sodium citrate. Erythrocytes were separated from blood plasma by centrifugation (3000×g, 5 min) and suspended in phosphate buffer saline (PBS) of pH 7.4. […] 0.5 ml 2% w/v dispersion of microspheres formulations in PBS (pH 7.4) was added to 4.5 ml of normal saline and interacted with 1 ml RBC suspension. […] After 1 hr, mixture was centrifuged and supernatants were taken and diluted with an equal volume of normal saline and absorbance was taken at 540 nm against supernatant of normal saline diluted similarly as blank. The percentage hemolysis was thus determined for each sample by taking absorbance of water as 100% hemolytic sample.

[3] = In vitro drug release study of microspheres (USP paddle); format: physicochemical; conditions: HCl buffer pH 1.2, first hr
Description: 900 ml of HCl buffer (pH 1.2) was used as dissolution medium for first hr and phosphate buffered saline (PBS, pH 6.8) was used for next 11 hrs. The dried microspheres were filled in hard gelatin capsules and were placed in dissolution vessels. 5 ml sample was withdrawn at various time intervals and volume of the media was replenished with an equal amount of dissolution media. The samples were then analyzed spectroflurometrically.

[4] = rat; for % Dose recovered: 6-CF, oral

## Cn1c(=O)c2[nH]cnc2n(C)c1=O [theophylline]
[1]
  bioavailability: 100%

## Nc1nc2c(ncn2COCCO)c(=O)[nH]1 [Acyclovir]
[1]
  bioavailability: 10-20%
In vivo
  AUC: 282 ± 28 ng·h/mL
In vivo; 5 mg/kg
  Cmax: 53.1 ± 6.8 ng/mL
  MRT: 5.4 ± 0.5 h
  bioavailability: 100%
[2]
  Area under plasma concentration profile (AUC): 3307.5 ng·h/mL
  Time to maximum plasma concentration (tmax): 1.4 h
Erythrocytes
  % Hemolysis: 10.2 ± 1.4%
[3]
  % drug released in first 1 hr: 95.3±4.1%

## O=C(O)c1ccc2c(c1)C1(OC2=O)c2ccc(O)cc2Oc2cc(O)ccc21 [6-CF solution, 6-Carboxyfluorescein]
[4]; 1. Stomach, 2 hr
  % Dose recovered: 52.2%
[4]; 1. Stomach, 6 hr
  % Dose recovered: 0%
[4]; 1. Stomach, 8 hr
  % Dose recovered: 0%
[4]; 1. Stomach, 10 hr
  % Dose recovered: 0%
[4]; 2. Duodenum, 2 hr
  % Dose recovered: 10.9%
[4]; 2. Duodenum, 4 hr
  % Dose recovered: 19.5%
[4]; 2. Duodenum, 6 hr
  % Dose recovered: 0%
[4]; 2. Duodenum, 8 hr
  % Dose recovered: 0%
[4]; 2. Duodenum, 10 hr
  % Dose recovered: 0%
[4]; 3. Jejunum, 2 hr
  % Dose recovered: 0%
[4]; 3. Jejunum, 4 hr
  % Dose recovered: 10.6%
[4]; 3. Jejunum, 6 hr
  % Dose recovered: 0%
[4]; 3. Jejunum, 8 hr
  % Dose recovered: 0%
[4]; 3. Jejunum, 10 hr
  % Dose recovered: 0%
[4]; 4. Jejunum, 2 hr
  % Dose recovered: 0%
[4]; 4. Jejunum, 4 hr
  % Dose recovered: 5.8%
[4]; 4. Jejunum, 6 hr
  % Dose recovered: 6.9%
[4]; 4. Jejunum, 8 hr
  % Dose recovered: 0%
[4]; 4. Jejunum, 10 hr
  % Dose recovered: 0%
[4]; 5. Jejunum, 2 hr
  % Dose recovered: 0%
[4]; 5. Jejunum, 4 hr
  % Dose recovered: 0%
[4]; 5. Jejunum, 6 hr
  % Dose recovered: 3.9%
[4]; 5. Jejunum, 8 hr
  % Dose recovered: 0%
[4]; 5. Jejunum, 10 hr
  % Dose recovered: 0%
[4]; 6. Ileum, 2 hr
  % Dose recovered: 0%
[4]; 6. Ileum, 4 hr
  % Dose recovered: 0%
[4]; 6. Ileum, 6 hr
  % Dose recovered: 0%
[4]; 6. Ileum, 8 hr
  % Dose recovered: 5.9%
[4]; 6. Ileum, 10 hr
  % Dose recovered: 0%
[4]; 7. Remaining Intestine, 2 hr
  % Dose recovered: 0%
[4]; 7. Remaining Intestine, 4 hr
  % Dose recovered: 0%
[4]; 7. Remaining Intestine, 6 hr
  % Dose recovered: 0%
[4]; 7. Remaining Intestine, 8 hr
  % Dose recovered: 0%
[4]; 7. Remaining Intestine, 10 hr
  % Dose recovered: 0%
[4]; time not stated
  % recovered from stomach following oral administration: more than 30%
